# Patent US20100056627A1, “PHARMACEUTICAL COMPOSITIONS OF ALKYL GALLATES” (priority 2006, published 2010)
# Where two headings read alike, the source gives them in different places.
# Key:
# [1] = tested on: fungi (mold); experiment: MIC of octyl gallate against fungi (mold) with trisodium citrate and propyl gallate; assay type: cell-based; details: for MIC: 24 h, read-out: Octyl gallate MIC, SDA (+0.9% trisodium citrate), 24 hr, triplicate
# [2] = tested on: clinical isolate MRSA; experiment: Oxacillin MIC against MRSA with concomitant octyl gallate and short-chain alkyl gallate (β-lactam sensitivity, ILSMR effect); assay type: cell-based, Staphylococcus aureus
# [3] = tested on: MRSA COL strain; experiment: Time required for killing bacteria, octyl gallate and propyl gallate (FIG. 1); assay type: cell-based, Staphylococcus aureus; details: concomitant use of octyl gallate and propyl gallate
# Excerpt: FIG. 1 is a graph showing shortening of the time required for killing bacteria by the concomitant use of octyl gallate and propyl gallate against MRSA COL strain.
# [4] = tested on: Candida albicans ATCC 10231; experiment: Time required for killing mold, octyl gallate and propyl gallate (FIG. 2); assay type: cell-based; details: concomitant use of octyl gallate and propyl gallate, FIG. 2
# Excerpt: FIG. 2 is a graph showing shortening of the time required for killing mold by the concomitant use of octyl gallate and propyl gallate against Candida albicans ATCC 10231.
# [5] = tested on: influenza virus in MDCK cells; assay type: cell-based
# [6] = tested on: herpes virus (HSV-1); experiment: Virucidal activity against HSV-1 (Tables 14, 15, FIG. 5); assay type: cell-based
# [7] = clinical isolate MRSA, Isoamyl gallate 6.25
# [8] = clinical isolate MRSA, Isoamyl gallate 12.5
# [9] = clinical isolate MRSA, Isoamyl gallate 25
# [10] = clinical isolate MRSA, Propyl gallate 6.25
# [11] = clinical isolate MRSA, Propyl gallate 12.5
# [12] = clinical isolate MRSA, Propyl gallate 25
# [13] = clinical isolate MRSA, short-chain alkyl gallate None
smiles,measurement,setting,value
CCCCCCCCOC(=O)c1cc(O)c(O)c(O)c1 [octyl gallate],MIC,"[1]; phosphate buffer (1 mM), propyl gallate 0",20 µg/mL
same,MIC,[1]; propyl gallate 300 μg/mL,10 µg/mL
same,MIC,[1]; propyl gallate 1000 μg/mL,10 µg/mL
same,antimicrobial activity against fungi (mold),[1]; […],reinforced
same,octyl gallate concentration with growth inhibitory effect in all the bacterial strains with only octyl gallate,[2]; clinical isolate MRSA,25 µg/mL
same,"Concentration of octyl gallate for concomitant use necessary for obtaining oxacillin MIC not higher than 2 μg/mL, C50",[2]; [7],>12.5 µg/mL
same,"Concentration of octyl gallate for concomitant use necessary for obtaining oxacillin MIC not higher than 2 μg/mL, C100",[2]; [7],>12.5 µg/mL
same,"Concentration of octyl gallate for concomitant use necessary for obtaining oxacillin MIC not higher than 2 μg/mL, C50",[2]; [8],>12.5 µg/mL
same,"Concentration of octyl gallate for concomitant use necessary for obtaining oxacillin MIC not higher than 2 μg/mL, C100",[2]; [8],>12.5 µg/mL
same,"Concentration of octyl gallate for concomitant use necessary for obtaining oxacillin MIC not higher than 2 μg/mL, C50",[2]; [9],1.56 µg/mL
same,"Concentration of octyl gallate for concomitant use necessary for obtaining oxacillin MIC not higher than 2 μg/mL, C100",[2]; [9],1.56 µg/mL
same,"Concentration of octyl gallate for concomitant use necessary for obtaining oxacillin MIC not higher than 2 μg/mL, Range",[2]; [9],1.56 µg/mL
same,"Concentration of octyl gallate for concomitant use necessary for obtaining oxacillin MIC not higher than 2 μg/mL, C50",[2]; [10],>12.5 µg/mL
same,"Concentration of octyl gallate for concomitant use necessary for obtaining oxacillin MIC not higher than 2 μg/mL, C100",[2]; [10],>12.5 µg/mL
same,"Concentration of octyl gallate for concomitant use necessary for obtaining oxacillin MIC not higher than 2 μg/mL, C50",[2]; [11],>12.5 µg/mL
same,"Concentration of octyl gallate for concomitant use necessary for obtaining oxacillin MIC not higher than 2 μg/mL, C100",[2]; [11],>12.5 µg/mL
same,"Concentration of octyl gallate for concomitant use necessary for obtaining oxacillin MIC not higher than 2 μg/mL, Range",[2]; [11],6.25 to 12.5 µg/mL
same,"Concentration of octyl gallate for concomitant use necessary for obtaining oxacillin MIC not higher than 2 μg/mL, C50",[2]; [12],3.13 µg/mL
same,"Concentration of octyl gallate for concomitant use necessary for obtaining oxacillin MIC not higher than 2 μg/mL, C100",[2]; [12],6.25 µg/mL
same,"Concentration of octyl gallate for concomitant use necessary for obtaining oxacillin MIC not higher than 2 μg/mL, Range",[2]; [12],1.56 to 6.25 µg/mL
same,"Concentration of octyl gallate for concomitant use necessary for obtaining oxacillin MIC not higher than 2 μg/mL, C50",[2]; [13],25 µg/mL
same,"Concentration of octyl gallate for concomitant use necessary for obtaining oxacillin MIC not higher than 2 μg/mL, C100",[2]; [13],25 µg/mL
same,"Concentration of octyl gallate for concomitant use necessary for obtaining oxacillin MIC not higher than 2 μg/mL, Range",[2]; [13],25 µg/mL
same,octyl gallate concentration at which a decrease of the MIC value of oxacillin to MRSA occurs,[2]; in the coexistence of propyl gallate or isoamyl gallate,1.56 µg/mL
same,"Concentration of octyl gallate for concomitant use for oxacillin MIC of 2 μg/mL or lower, 100% of MRSA strains (C100)",[2]; isoamyl gallate coexisting at 25 μg/mL,1.56 µg/mL
same,"Concentration of octyl gallate for concomitant use for oxacillin MIC of 2 μg/mL or lower, 100% of MRSA strains (C100)",[2]; propyl gallate coexisting at 25 μg/mL,6.25 µg/mL
same,octyl gallate concentration at which an ILSMR effect was confirmed,"[2]; several bacterial strains, oxacillin with octyl gallate",12.5 µg/mL
same,time required for killing bacteria,[3],shortened to a large extent
same,time required for killing mold,[4],shortened to a large extent
same,growth inhibition of influenza virus in MDCK cells,[5],markedly reinforced
same,growth of influenza virus in MDCK cells,[5],inhibits the growth
same,No of plaques,"[6]; Table 14, octyl gallate 10 mg/L, J1816 30 mg/L, Na3citrate 0.90%",0
same,No of plaques,"[6]; Table 14, octyl gallate 10 mg/L, propyl gallate 300 mg/L, J1816 120 mg/L, Na3citrate 0.90%",0
same,No of plaques,"[6]; Table 14, octyl gallate 20 mg/L, J1816 60 mg/L, Na3citrate 0.90%",0
same,No of plaques,"[6]; Table 14, octyl gallate 20 mg/L, propyl gallate 300 mg/L, J1816 150 mg/L, Na3citrate 0.90%",0
same,No of plaques,"[6]; Table 14, octyl gallate 30 mg/L, J1816 90 mg/L, Na3citrate 0.90%",0
same,No of plaques,"[6]; Table 14, octyl gallate 30 mg/L, propyl gallate 300 mg/L, J1816 180 mg/L, Na3citrate 0.90%",0
same,No of plaques,"[6]; Table 14, octyl gallate 60 mg/L, J1816 180 mg/L, Na3citrate 0.90%",0
same,No of plaques,"[6]; Table 14, octyl gallate 60 mg/L, J1816 180 mg/L, Na3citrate not given",0
same,No of plaques,"[6]; Table 14, octyl gallate 60 mg/L, propyl gallate 300 mg/L, J1816 270 mg/L, Na3citrate 0.90%",0
same,No of plaques,"[6]; Table 14, octyl gallate 100 mg/L, J1816 300 mg/L, Na3citrate 0.90%",0
same,No of plaques,"[6]; Table 14, octyl gallate 100 mg/L, propyl gallate 300 mg/L, J1816 390 mg/L, Na3citrate 0.90%",0
same,No of plaques,"[6]; Table 15, octyl gallate 10 mg/L, J1816 0, NaCitrate 0.90%",48
same,No of plaques,"[6]; Table 15, octyl gallate 10 mg/L, propyl gallate 300 mg/L, J1816 0, NaCitrate 0.90%",11
same,No of plaques,"[6]; Table 15, octyl gallate 20 mg/L, J1816 0, NaCitrate 0.90%",0
same,No of plaques,"[6]; Table 15, octyl gallate 20 mg/L, propyl gallate 300 mg/L, J1816 0, NaCitrate 0.90%",0
same,No of plaques,"[6]; Table 15, octyl gallate 30 mg/L, J1816 0, NaCitrate 0.90%",0
same,No of plaques,"[6]; Table 15, octyl gallate 30 mg/L, propyl gallate 300 mg/L, J1816 0, NaCitrate 0.90%",0
same,No of plaques,"[6]; Table 15, octyl gallate 60 mg/L, J1816 0, NaCitrate 0.90%",0
